Source: paper PMC3050082 (Journal of medicinal chemistry, 2010)
Where two headings read alike, the source gives them in different places.

Columns and labels:
[1] = tested on: HIV-1 A17 (K103N/Y181C); assay: Multi-RTI-resistant HIV-1 A17 replication in MT-2 cells; type: cell-based; details: Human immunodeficiency virus 1, MT2
[2] = tested on: HIV-1 RTMDR; assay: Multi-RTI-resistant HIV-1 RTMDR infection in TZM-bl cell line; type: cell-based; details: Human immunodeficiency virus 1, TZM-bl
[3] = tested on: HIV-1 IIIB; details: cited from earlier work
[4] = tested on: MT-2 cells; details: cited from earlier work
[5] = tested on: TZM-bl cell line; details: cited from earlier work
[6] = tested on: HIV-1 NL4-3; details: NL4-3 in TZM-bl cell line; starred compounds, data were reported in ref [11]; cited from earlier work
[7] = tested on: HIV-1 IIIB; assay: Inhibition of HIV-1 IIIB replication in MT-2 cells; type: cell-based; details: Human immunodeficiency virus 1, IIIB
[8] = tested on: HIV-1 NL4-3; assay: microbe, parasite or virus in culture; type: cell-based; details: for EC50: Human immunodeficiency virus 1, NL43, TZM-bl
[9] = IIIB in MT-2 cell line, starred compounds, data were reported in ref [11]
[10] = MT-2 cell line, XTT assay, starred compounds, data were reported in ref [11]
[11] = TZM-bl cell line, XTT assay, starred compounds, data were reported in ref [11]

CC(=O)CCc1cc(C)c(Oc2ccc(N)c(Nc3ccc(C#N)cc3)n2)c(C)c1 [13k, 6-[(4″-Butan-2-one)-2″,6″-dimethyl]phenoxy-N^2-(4′-cyanophenyl)pyridin-2,3-diamine]
EC50 [1]: 730 ± 58 nM
EC50 [2]: 3.2 ± 0.8 nM

Cc1cc(I)cc(C)c1Oc1ccc([N+](=O)[O-])c(Nc2ccc(C#N)cc2)n1 [11a, N^2-(4′-Cyanophenyl)-6-(2″,6″-dimethyl-4″-iodo)phenoxy-3-nitropyridin-2-amine]
EC50 [3, 9]: 79 ± 2 nM
SI (selective index = CC50/EC50) [3, 9]: 283
CC50 [4, 10]: 22900 nM
CC50 [5, 11]: > 41200 nM
EC50 [2]: 94.3 ± 9 nM
EC50 [6]: 60.7 ± 24 nM
SI (selective index = CC50/EC50) [6]: >675

Cc1cc(C#CC2CC2)cc(C)c1Oc1ccc([N+](=O)[O-])c(Nc2ccc(C#N)cc2)n1 [11e, N-(4′-Cyanophenyl)-6-[4″-(2-cyclopropylethynyl)-2″,6″-dimethyl]phenoxy-3-nitro-pyridin-2-amine]
EC50 ([7]; MT2, IIIB in MT-2 cell line): > 3000 nM

C#Cc1cc(C)c(Oc2ccc(N)c(Nc3ccc(C#N)cc3)n2)c(C)c1 [13f, N^2-(4′-Cyanophenyl)-6-(2″,6″-dimethyl-4″-ethynyl)phenoxypyridin-2,3-diamine]
SI (selective index = CC50/EC50) [3, 9]: 221
EC50 [1]: 1430 ± 260 nM
CC50 [4, 10]: 9280 nM
CC50 [5, 11]: 9940 nM
EC50 [2]: 9 ± 2 nM
EC50 [6]: 6.7 ± 1 nM
SI (selective index = CC50/EC50) [6]: 1484

Cc1cc(/C=C/C#N)cc(C)c1Oc1ccc(N)c(Nc2ccc(C#N)cc2)n1 [13m, (E)-N^2-(4′-Cyanophenyl)-6-(4″-cyanovinyl-2″,6″-dimethyl)phenoxypyridin-2,3-diamine]
EC50 [1]: 200 ± 10 nM
EC50 [2]: 0.59 ± 0.09 nM

Cc1cc(C#N)cc(C)c1Oc1ccc(N)c(Nc2ccc(C#N)cc2)n1 [compound 3, reference compound]
EC50 [2]: 0.96 ± 0.3 nM
EC50 ([8]; NL4-3 in TZM-bl cell line): 0.68 ± 0.03 nM

Cc1cc(/C=C/C#N)cc(C)c1Oc1ccc([N+](=O)[O-])c(Nc2ccc(C#N)cc2)c1 [12c, (E)-N^2-(4′-Cyanophenyl)-4-(4″-cyanovinyl-2″,6″-dimethyl)phenoxy-1-nitroaniline]
selectivity ratio ([8]; human): > 4690

N#Cc1ccc(Nc2cc([N+](=O)[O-])c(Oc3ccc4cc(C#N)ccc4c3Br)cc2N)cc1 [compound 20, 4-(1-Bromo-6-cyano-2-naphthoxy)-N^1-(4′-cyanophenyl)-5-nitrobenzene-1,2-diamine]
EC50 ([7]; MT2, IIIB in MT-2 cell line): > 100 nM
EC50 ([8]; NL4-3 in TZM-bl cell line): > 100 nM

Cc1cc(/C=C/C#N)cc(C)c1Oc1ccc([N+](=O)[O-])c(Nc2ccc(C#N)cc2)n1 [11m, (E)-N-(4′-Cyanophenyl)-6-(4″-cyanovinyl-2″,6″-dimethyl)phenoxy-3-nitropyridin-2-amine]
EC50 [2]: 14.8 ± 2.4 nM

Cc1cc(C#CC(C)(C)O)cc(C)c1Oc1ccc([N+](=O)[O-])c(Nc2ccc(C#N)cc2)n1 [11d, N-(4′-Cyanophenyl)-6-[2″,6″-dimethyl-4″-(3-methylbut-3-ol-1-yn)phenoxy]-3-nitropyridin-2-amine]
SI (selective index = CC50/EC50) [3]: 2.61
CC50 [4]: 23300 nM
CC50 [5]: 45200 nM
SI (selective index = CC50/EC50) [6]: 1.09

N#Cc1ccc(Nc2cc(Oc3ccc4cc(C#N)ccc4c3)c([N+](=O)[O-])cc2[N+](=O)[O-])cc1 [compound 17, 5-(6-Cyano-2-naphthoxy)-N^1-(4′-cyanophenyl)-2,4-dinitroaniline]
EC50 ([7]; MT2): > 100 nM
EC50 [8]: > 100 nM

C#Cc1cc(C)c(Oc2ccc([N+](=O)[O-])c(Nc3ccc(C#N)cc3)n2)c(C)c1 [11f, N^2-(4′-Cyanophenyl)-6-(2″,6″-dimethyl-4″-ethynyl)phenoxy-3-nitropyridin-2-amine]
EC50 [3, 9]: 247 ± 40 nM
SI (selective index = CC50/EC50) [3, 9]: >405
CC50 [4, 10]: > 100000 nM
CC50 [5, 11]: > 52100 nM
EC50 [2]: 215 ± 33 nM
EC50 [6]: 111 ± 86 nM
SI (selective index = CC50/EC50) [6]: >469

Cc1cc(C#CC(C)(C)O)cc(C)c1Oc1ccc(N)c(Nc2ccc(C#N)cc2)n1 [13d, N^2-(4′-Cyanophenyl)-6-[2″,6″-dimethyl-4″-(3-methylbut-3-ol-1-yn)phenoxy]pyridin-2,3-di amine]
EC50 [3, 9]: 1580 ± 97 nM
SI (selective index = CC50/EC50) [3]: 2.25
CC50 [4]: 3540 nM
CC50 [5]: 8730 nM
EC50 [6]: 241 ± 14.7 nM
SI (selective index = CC50/EC50) [6]: 36

C=CCc1cc(C)c(Oc2ccc(N)c(Nc3ccc(C#N)cc3)n2)c(C)c1 [13c, 6-(4″-Allyl-2″,6″-dimethyl)phenoxy-N^2-(4′-cyanophenyl)pyridin-2,3-diamine]
EC50 [2]: 15.4 ± 1.6 nM

Cc1cc(I)cc(C)c1Oc1ccc(N)c(Nc2ccc(C#N)cc2)n1 [13a, N^2-(4′-Cyanophenyl)-6-(2″,6″-dimethyl-4″-iodo)phenoxypyridin-2,3-diamine]
EC50 [3, 9]: 54 ± 4 nM
SI (selective index = CC50/EC50) [3, 9]: 134
CC50 [4, 10]: 7240 nM
CC50 [5, 11]: 16700 nM
EC50 [2]: 5.13 ± 1.15 nM
EC50 [6]: 7.6 ± 2.3 nM
SI (selective index = CC50/EC50) [6]: 2200

N#Cc1ccc(Nc2cc(Oc3ccc4cc(C#N)ccc4c3)c([N+](=O)[O-])cc2N)cc1 [compound 19, 4-(6-Cyano-2-naphthoxy)-N^2-(4′-cyanophenyl)-5-nitrobenzene-1,2-diamine]
EC50 ([7]; MT2, IIIB in MT-2 cell line): > 100 nM
EC50 ([8]; NL4-3 in TZM-bl cell line): > 100 nM

Cc1cc(C#CC2CC2)cc(C)c1Oc1ccc(N)c(Nc2ccc(C#N)cc2)n1 [13e, N^2-(4′-Cyanophenyl)-6-[4″-(2-cyclopropylethynyl)-2″,6″-dimethylphenoxy]pyridin-2,3-diamine]
EC50 [1]: > 10000 nM
EC50 [2]: 121 ± 17.7 nM
